Laboratory results: PubChem BioAssay AID504765 (Sanford-Burnham Center for Chemical Genomics, 2011)
Activity calls are given as the source filed them. No rule for the calls is given here.

Biological target: glucose-6-phosphate dehydrogenase-6-phosphogluconolactonase (Plasmodium falciparum 3D7)
Test: PfG6PD inhibitor potency, dose response, biochemical, fluorescence intensity (AID 504765)
Details: Recombinant PfG6PD enzyme, fluorescence intensity (NADPH)

| Compound | IC50 |
| --- | --- |
| CC(=O)OCC1(C)CN(c2ccccc2)NC1=O (stereo not given) | 5.19 µM |
| COC(=O)c1cc2c(n1S(=O)(=O)c1ccc(C)cc1)C(=O)C(=O)c1[nH]cc(C(=O)OCc3ccccc3)c1-2 | 15.8 µM |
| CC(=NNC(=S)N1CCN(c2ccccn2)CC1)c1nccs1 | 5.6 µM |
| Cc1[nH]c2ccccc2c1/C=N/NC(=O)c1cccc(S(=O)(=O)Nc2ccccc2Cl)c1 | 8.71 µM |
| C=CCOc1c(Cl)cc(CNc2ccc(N(C)C)cc2)cc1OC | 9.87 µM |
| O=C(Nc1nnc(S(=O)(=O)N2CCCCC2)s1)c1ccc(Cl)cc1 | 6.01 µM |
| CCN1CCCC1CNC(=O)c1ccc2c(c1)NC(=O)/C(=C\c1ccccc1Cl)S2 (stereo not given) | 3.08 µM |
| Cn1c(=O)[nH]c(=O)c2c1[nH]c(=S)n2CCCc1ccccc1 | inactive |
| O=C(Cc1ccccc1)NCC(=O)OCC(=O)c1ccc([N+](=O)[O-])cc1 | 10.6 µM |
| Cc1ccc(-c2csc(NC(=O)c3ccc(Br)cc3)c2C(=O)O)cc1 | 6.25 µM |
| COc1ccc(NC(=S)N(CCC(C)C)C2CCN(C(C)C)CC2)cc1Cl | 14.3 µM |
| C=CCSc1nnc(NC(=O)c2ccc(Cl)nc2)s1 | 4.05 µM |
| Cc1cnc(C=NNC(N)=S)c2cccc(N)c12 | 1.72 µM |
| [O-]/[N+](=C\c1ccccc1)c1ccc(Br)cc1 | 0.84 µM |
| CCCNC(=O)Cn1sc2nc(C)cc(C)c2c1=O | 3.13 µM |
| CC(=O)Nc1ccc(S(=O)(=O)/N=C2\C(=O)c3ccccc3C([O-])=C2n2cc[n+](-c3ccccn3)c2)cc1 | 12.9 µM |
| COC(=O)CCC(=O)OC1(C)C(=O)C2=CN(c3ccc(OC)cc3)C(c3ccc(OC)cc3)=CC2=C(Br)C1=O (stereo not given) | 3.09 µM |
| COc1ccc(-n2c(=S)[nH]c3c(sc(=S)n3-c3ccccc3)c2=O)c(OC)c1 | inactive |
| O=C1/C(=C\c2ccc([N+](=O)[O-])cc2)CS(=O)(=O)C/C1=C/c1ccc([N+](=O)[O-])cc1 | 2.95 µM |
| COc1cc(/C=C2\SC(c3ccc(C)cc3)=NC2=O)ccc1O | 8.7 µM |
| CNCc1ccccc1Sc1cc(O)ccc1O | 2.23 µM |
| Fc1cccc(Cl)c1CNc1ccc(N2CCCC2)cc1 | 4.06 µM |
| C[C@H](NC(N)=O)C(=O)Nc1ccc(N2CCOCC2)c(S(=O)(=O)Nc2ccc(Cl)cc2)c1 | inactive |
| O=C(Nc1nc(-c2ccncc2)cs1)C1COc2ccccc2O1 (stereo not given) | inactive |
| C[c-]1[c-](C)[c-](C)[c-](C)[c-]1C.[Fe].c1cc2nccc(N3CCCC3)[c-]2c1 (stereo not given) | inactive |
| O=c1ccsn1Cc1ccccc1 | 2.29 µM |
| O=S(=O)(NCc1csc(-c2ccccc2)n1)c1ccc(Cl)s1 | 6.28 µM |

| Compound | IC50 |
| --- | --- |
| Cc1ccc(C)c(-n2sc3ccc(F)cc3c2=O)c1 | 1.24 µM |
| CC1=C(O)C(=O)C=C2C1=CC=C1C2(C)CCC2(C)C3CC(C)(C(=O)O)CCC3(C)CCC12C (stereo not given) | 16.7 µM |
| CCOc1ccc(S(=O)(=O)Nc2cc(SCC(=O)O)c(O)c3ccccc23)cc1 | 2.47 µM |
| O=c1c2cc([N+](=O)[O-])ccc2sn1-c1ccccc1 | 5.27 µM |
| Cc1ccc(C(=O)NCC(=O)NCC(=O)OCC(=O)c2ccc([N+](=O)[O-])cc2)cc1 | 5.92 µM |
| C[C@]12CC[C@@H]3c4cc(O)c(O)cc4CC[C@H]3[C@@H]1CC[C@@H]2O | inactive |
| COc1cc(C(=O)O/N=C2\C=CC(=O)C=C2C)cc(OC)c1OC | 14.1 µM |
| O=C(Nc1nnc(C2CC2)s1)c1ccc(Cl)nc1 | 4.18 µM |
| O=C(COC(=O)c1cnccn1)c1ccc([N+](=O)[O-])cc1 | 12.2 µM |
| CN=c1scc(C)n1/N=C/c1ccc(O)c(O)c1O | 3.98 µM |
| Cc1ccccc1N/C(SCc1cccc(Br)c1)=C(/C#N)C(N)=O | 5.9 µM |
| Cc1ccc2nc(SCC(=O)NC3CCCc4ccccc43)[nH]c2c1 (stereo not given) | 9.6 µM |
| Clc1cccc(Cl)c1CNc1ccc(N2CCCC2)cc1 | 3.79 µM |
| CN(C)c1ccc(Cc2cc3c(O)ccc(O)c3cc(Cc3ccc(N(C)C)cc3)c2=O)cc1 | 2.05 µM |
| c1ccc(-c2cn3c(n2)CCc2ccc4cccnc4c2-3)cc1 | 8.54 µM |
| Cn1cc(S(=O)(=O)CC(=O)N2CCc3ccccc32)c2ccccc21 | inactive |
| O=C(Nc1ccc(N2CCN(C(=O)c3ccco3)CC2)c(Cl)c1)c1cc2ccccc2o1 | 10.3 µM |
| O=C(Cn1sc2ccccc2c1=O)Nc1ccc(Cl)cc1 | 3.26 µM |
| O=C(Nc1sc2c(c1C(=O)O)CCC2)c1ccc(F)cc1 | 7.8 µM |
| COc1ccc(N2CSC3=C(C#N)C(c4ccc(OC)c(OC)c4)CC(=O)N3C2)c(OC)c1 (stereo not given) | 5.21 µM |
| Cc1noc(C(=O)Nc2sc3c(c2C#N)CCC3)c1Cl | 4.83 µM |
| COc1cc(NCc2ccccc2O)c2ncccc2c1 | inactive |
| O=[N+]([O-])c1c(NCCCO)cc(Sc2nc3ccccc3s2)c2nonc12 | 12.5 µM |
| O=c1c2ccccc2sn1-c1ccc(S(=O)(=O)N2CCCCC2)cc1 | 7.2 µM |
| O=S(=O)(Nc1cccc2cccnc12)c1ccccc1 | 7.08 µM |
| O=C(CNC(=O)c1ccco1)OCC(=O)c1ccc([N+](=O)[O-])cc1 | 19.1 µM |
| Cc1cc(C)c2c(=O)n(CC(=O)Nc3cccc(F)c3)sc2n1 | 1.89 µM |

| Compound | IC50 |
| --- | --- |
| CCc1cc(-c2n[nH]c(C)c2-c2nc3ccccc3n2C)c(O)cc1O | inactive |
| COC(=O)C1=C(C(=O)OC)SC2(S1)C(C(=O)OC)=C(C(=O)OC)Sc1c2ssc1=O | 1.4 µM |
| CCOc1cc(CNc2ccc(N3CCCC3)cc2)cc(Cl)c1OC | 3.87 µM |
| CCc1cc(-c2n[nH]c(C)c2-c2ccccc2Cl)c(O)cc1OC | 7.52 µM |
| Cc1cccc(NC2=C(NC(=O)c3ccccc3)C(=O)c3ccccc3C2=O)c1 | 10.6 µM |
| COc1cc(/C=N/Nc2nncn2N)ccc1OCc1c(C)no[n+]1[O-] | 8.92 µM |
| COc1cc(OC)c(C2CC(=O)N3CN(c4ccccc4)CSC3=C2C#N)cc1OC (stereo not given) | 11.5 µM |
| O=c1c2ccccc2sn1-c1ccccc1 | 1.15 µM |
| CNS(=O)(=O)c1ccc(-c2ccc(C=C3C(=O)NC(=O)NC3=O)o2)cc1 | 8.75 µM |
| O=S(=O)(Nc1ccc(Cl)cc1)c1ccc(N2CCOCC2)c(NC(=S)NCCN2CCOCC2)c1 | 15.1 µM |
| CC(=O)Nc1ccc2c(c1)Cc1cc(N3C(=O)C=CC3=O)ccc1-2 | 19.3 µM |
| O=C(CBr)c1ccc([N+](=O)[O-])c(CS(=O)(=O)c2ccc(Cl)cc2)c1 | 10.5 µM |
| CCN=c1scc(C)n1/N=C/c1ccc(O)c(O)c1O | 6.91 µM |
| C=CCOc1c(Cl)cc(CNc2ccc3[nH]c(=O)[nH]c3c2)cc1OC | 7.9 µM |
| Cc1ccc(-c2csc(NC(=O)c3ccccc3F)c2C(=O)O)cc1 | 8.06 µM |
| C/C(Cn1nnc([N+](=O)[O-])n1)=N\NC(=O)c1ccccc1O | 7.39 µM |
| OCc1ccccc1SSc1ccccc1CO | 16.5 µM |
| c1nc(SSc2ncnc3nc[nH]c23)c2[nH]cnc2n1 | 4.78 µM |
| Cc1ccc(S(=O)(=O)/N=C2/C=C(C3C(=O)CC(C)(C)CC3=O)C(=O)c3ccccc32)cc1 | 14.1 µM |
| Cc1ccc2nc3sc(C(=O)N4CCOCC4)c(N)c3cc2c1 | 12.9 µM |
| Cc1ccsc1/C=N\NC(=O)CC(=O)NCc1ccccc1 | 6.41 µM |
| COc1cccc(C(=O)Nc2nnc(S(=O)(=O)N(C)Cc3ccccc3)s2)c1 | 4.04 µM |
| c1cncc(CNc2ccc3c(c2)OCO3)c1 | 13.9 µM |
| CC(C)c1nnc(NC(=O)c2cc3ccccc3o2)s1 | 16.5 µM |
| CCN(CC)CCNC(=O)CCCCn1c(=S)[nH]c2c([nH]c3ccc(OC)cc32)c1=O | inactive |
| CCSc1nc2cc(S(=O)(=O)N3CCOCC3)ccc2o1 | inactive |
